Reference: patent US12258338B2, “Modulators of the integrated stress response pathway” (EVOTEC INTERNATIONAL GMBH, priority 2019, dated 2025)
Like-named read-outs stand apart in the source and are kept apart here.

Key:
[1] = molecular target: T1, human ERG potassium channel (hERG) (Homo sapiens, UniProt Q12809); assay: hERG channel tail current recording using in vitro Rapid ICE (automated patch-clamp, QPatch HTX); type: cell-based
T1 construct: expressed in transfected cells; host or cells: HEK293, stably transfected, tetracycline-inducible promoter
T1 sequence (Q12809 whole entry): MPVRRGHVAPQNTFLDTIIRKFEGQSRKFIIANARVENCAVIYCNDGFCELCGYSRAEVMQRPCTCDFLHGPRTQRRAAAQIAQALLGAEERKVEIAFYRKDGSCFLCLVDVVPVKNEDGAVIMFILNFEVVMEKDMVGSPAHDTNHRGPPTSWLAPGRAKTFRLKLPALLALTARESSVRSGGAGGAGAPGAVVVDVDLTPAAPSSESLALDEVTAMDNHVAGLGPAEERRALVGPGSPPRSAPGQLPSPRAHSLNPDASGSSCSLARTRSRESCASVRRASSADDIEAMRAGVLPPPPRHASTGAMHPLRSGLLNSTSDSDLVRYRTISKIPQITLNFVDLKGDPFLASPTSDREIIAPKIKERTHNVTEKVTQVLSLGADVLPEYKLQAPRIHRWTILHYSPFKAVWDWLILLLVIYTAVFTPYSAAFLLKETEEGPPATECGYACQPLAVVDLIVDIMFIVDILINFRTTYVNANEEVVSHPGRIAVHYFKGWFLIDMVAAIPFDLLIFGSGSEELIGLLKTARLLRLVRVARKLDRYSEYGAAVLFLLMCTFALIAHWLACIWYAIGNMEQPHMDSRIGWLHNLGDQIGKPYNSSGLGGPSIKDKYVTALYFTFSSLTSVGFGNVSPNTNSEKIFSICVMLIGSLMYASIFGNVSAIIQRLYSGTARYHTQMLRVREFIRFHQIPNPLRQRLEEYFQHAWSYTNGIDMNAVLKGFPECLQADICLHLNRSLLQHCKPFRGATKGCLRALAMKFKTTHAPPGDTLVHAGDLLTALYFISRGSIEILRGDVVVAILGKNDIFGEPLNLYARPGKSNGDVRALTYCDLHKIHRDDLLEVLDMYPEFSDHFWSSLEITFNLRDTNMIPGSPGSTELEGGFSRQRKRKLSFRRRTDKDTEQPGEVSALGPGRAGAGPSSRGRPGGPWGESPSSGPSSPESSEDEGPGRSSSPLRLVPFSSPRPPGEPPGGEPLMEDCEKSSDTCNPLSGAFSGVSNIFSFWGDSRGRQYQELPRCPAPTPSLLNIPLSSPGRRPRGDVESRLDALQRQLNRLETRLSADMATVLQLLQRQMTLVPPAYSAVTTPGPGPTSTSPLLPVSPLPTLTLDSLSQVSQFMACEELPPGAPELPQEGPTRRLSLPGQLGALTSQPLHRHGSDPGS
Method in brief: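 Automated patch clamp on tetracycline-induced HEK293 hERG cells; pulse −80 to −50 mV 200 ms, +20 mV 4.8 s, −50 mV 5 s tail, extracellular pH 7.4. Compound at 0.3, 3, 30 μM (0.3% DMSO), 5 min exposure; tail current versus vehicle gives % inhibition and estimated IC50.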

ATF4 = assay: HEK-ATF4 High Content Imaging assay (prevention of Tunicamycin induced ISR; ATF4 signal ratio between nucleus and cytoplasm); type: cell-based
Method in brief: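 Wild-type HEK293 cells in 0.3% FBS medium were co-treated with compounds and Tunicamycin (3.3 μM in prediluted medium, 11-fold over final) for 6 h at 37 °C. Fixed cells were immunostained for ATF4 with Hoechst nuclei; imaging gave nuclear/cytoplasmic ATF4 ratio, with nuclei counts as toxicity control.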

[2] = Homo sapiens, Wild-type HEK293 cells, Tunicamycin induced ISR, 6 h, read-out: IIEK-ATF4 Activity
[3] = Table 24 category key, read-out: HEK-ATF4 Activity*

O=C(COc1ccc(Cl)c(F)c1)N[C@H]1CC[C@H](c2nnc([C@H]3C[C@@H](OC(F)(F)F)C3)o2)NC1 [Example 50, 2-(4-chloro-3-fluorophenoxy)-N-[(3S,6R)-6-{5-[(1s,3s)-3-(trifluoromethoxy)cyclobutyl]-1,3,4-oxadiazol-2-yl}piperidin-3-yl]acetamide]
IC50 ([1]; Table 24): 1000 to 5000 nM
IC50 ([1]; Table 26): > 5000 nM
IC50 (ATF4; [2]): 1 to 500 nM
IC50 (ATF4; [3]): 1 to 500 nM

O=C(COc1ccc(Cl)c(F)c1)N[C@H]1CC[C@H](c2nnc(COC(F)(F)F)o2)NC1 [Example 61, 2-(4-chloro-3-fluorophenoxy)-N-[(3S,6R)-6-(5-[(trifluoromethoxy)methyl]-1,3,4-oxadiazol-2-yl}piperidin-3-yl]acetamide]
IC50 ([1]; Table 24): 1000 to 5000 nM
IC50 ([1]; Table 26): 1000 to 5000 nM
IC50 (ATF4; [2]): 2000 to 15000 nM
IC50 (ATF4; [3]): 500 to 2000 nM
